Legend:
DYNAMO1-Dnm1 string [1] = target: T1, DYNAMO1-Dnm1 string (Cyanidioschyzon merolae, UniProt A0A125YLX6); assay: malachite green phosphate release (GTPase activity); assay type: biochemical; conditions: 20 mM HEPES, pH 7.5, 30 mM KCl, 1 mM MgCl2, 1 mM DTT; 37 °C; DYNAMO1 at half the amount of Dnm1
T1 construct: gene CYME_CME019C; with Nucleoside diphosphate kinase-like protein DYNAMO1

DYNAMO1-Dnm1 string [2] = target: T1, DYNAMO1-Dnm1 string; assay: as above; assay type: biochemical; conditions: 20 mM HEPES, pH 7.5, 30 mM KCl, 1 mM MgCl2, 1 mM DTT; 37 °C; DYNAMO1 at half the amount of Dnm1; remark: listed apart in the source
DYNAMO1 = target: T2, DYNAMO1 (Cyanidioschyzon merolae, UniProt M1USP1); assay: LC-ESI-MS/MS of nucleotides (nucleoside diphosphate kinase activity); assay type: biochemical; conditions: 100 nM enzyme, 37 °C, 3 min
T2 construct: gene CYME_CML110C; open reading frame in pGEX6p-1, GST tag cut off with PreScission protease, E. coli XL-1 Blue; 17 kDa; tetramer
T2 sequence (M1USP1 1-153): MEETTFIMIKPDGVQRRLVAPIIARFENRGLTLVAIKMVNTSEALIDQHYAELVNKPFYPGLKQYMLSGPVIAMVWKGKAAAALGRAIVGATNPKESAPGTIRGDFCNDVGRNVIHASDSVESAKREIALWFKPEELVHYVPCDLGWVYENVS

[3] = target: recombinant DYNAMO1 (dynamin-based ring motive-force organizer 1), GST removed (Cyanidioschyzon merolae); assay: SEC; 1 μg purified recombinant DYNAMO1 on a Sepharose 6 10/300 GL column, AKTA prime; standards thyroglobulin, γ-globulin, ovalbumin

T1 sequence (A0A125YLX6 entry or part of it, one chain of several): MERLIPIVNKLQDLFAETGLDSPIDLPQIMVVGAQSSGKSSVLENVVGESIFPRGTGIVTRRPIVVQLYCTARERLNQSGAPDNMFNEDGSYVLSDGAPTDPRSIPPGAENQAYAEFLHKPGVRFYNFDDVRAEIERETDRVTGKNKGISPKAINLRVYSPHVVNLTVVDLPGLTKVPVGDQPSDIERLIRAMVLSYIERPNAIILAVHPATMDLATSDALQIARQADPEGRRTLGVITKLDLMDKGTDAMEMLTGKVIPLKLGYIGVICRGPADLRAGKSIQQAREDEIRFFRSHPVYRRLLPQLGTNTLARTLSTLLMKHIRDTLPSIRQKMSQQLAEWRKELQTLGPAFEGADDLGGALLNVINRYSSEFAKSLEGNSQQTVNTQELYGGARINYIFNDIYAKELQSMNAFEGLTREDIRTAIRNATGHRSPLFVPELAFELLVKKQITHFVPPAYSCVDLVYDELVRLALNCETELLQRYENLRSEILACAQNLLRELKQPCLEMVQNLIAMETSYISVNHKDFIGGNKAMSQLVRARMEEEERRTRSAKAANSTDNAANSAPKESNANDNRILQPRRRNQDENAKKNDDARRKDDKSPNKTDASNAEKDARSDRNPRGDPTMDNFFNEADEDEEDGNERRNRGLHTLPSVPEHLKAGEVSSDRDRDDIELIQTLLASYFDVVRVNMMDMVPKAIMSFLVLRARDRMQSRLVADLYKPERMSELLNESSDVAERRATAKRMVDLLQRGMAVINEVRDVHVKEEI

Nc1nc2c(ncn2[C@@H]2O[C@H](COP(=O)(O)OP(=O)(O)OP(=O)(O)O)[C@@H](O)[C@H]2O)c(=O)[nH]1 [GTP]
malachite green phosphate release (GTPase activity) (DYNAMO1-Dnm1 string [1]): the GTPase activity of Dnm1 was higher in DYNAMO1-Dnm1 and DYNAMO1 H116D-Dnm1 strings
malachite green phosphate release (GTPase activity) (DYNAMO1-Dnm1 string [2]): the GTPase activity of Dnm1 was higher in DYNAMO1-Dnm1 and DYNAMO1 H116D-Dnm1 strings

Nc1nc2c(ncn2[C@@H]2O[C@H](COP(=O)(O)OP(=O)(O)O)[C@@H](O)[C@H]2O)c(=O)[nH]1 [GDP]
LC-ESI-MS/MS of nucleotides (nucleoside diphosphate kinase activity) (DYNAMO1; co-substrate ATP): generated GTP upon addition of ATP plus GDP (Fig. 1e, f)

Nc1ncnc2c1ncn2[C@@H]1O[C@H](COP(=O)(O)OP(=O)(O)OP(=O)(O)O)[C@@H](O)[C@H]1O [ATP]
LC-ESI-MS/MS of nucleotides (nucleoside diphosphate kinase activity) (DYNAMO1; co-substrate GDP): generated GTP upon addition of ATP plus GDP (Fig. 1e, f)

recombinant DYNAMO1 (dynamin-based ring motive-force organizer 1), GST removed (natural protein)
stoichiometry N [3]: 4
